Source: patent US11529344B2, “EZH2 inhibitor combination therapies” (Pfizer Inc., priority 2017, dated 2022)

Test system: DMS114 SCLC xenograft
Source text: • (i) Compound Formulation: Compound 1 was formulated as a wet-milled nanosuspension (24 hr milling in 2.5% w/v polyvinyl pyrrolidone (PVP), 0.5% w/v Macrogol 15 Hydroxystearate (Kolliphor HS15) aqueous, with <1 μm particle-size distribution (PSD; ˜650 nm median diameter (d50)) for oral gavage administration. • (ii) Cell Implant, Compound Dosing and Tissue Collection: Immune deficient female mice with a severe combined immunodeficiency (SCID) mutation in a non-obese diabetic background (NOD SCID; 6 to 8 week old; NOD.CB17-Prkdcscid/NCrCrl from Charles River Laboratories) received a subcutaneous (SC) implant of 7.5×10^6 DMS114 cells (in 1:1 matrigel (Trevigen, Cultrex BME Path Clear®, Lot #: 30625F14), total volume 200 μl) into the right flank. Tumor volume and body weight were measured twice a week. On Day 20 post implant, 64 mice were randomized, based on tumor size at a geometric mean (geomean) of about 160 mm^3, into 6 groups corresponding to dose (Table 1). Compounds were administered at 10 ml/kg by oral gavage (Compound 1; BID ( 7/17 hours apart)) or intraperitoneal injection (cisplatin), respectively. The cisplatin dosing schedule was once a week for 3 weeks (Q7Dx3) and started 7 days after the randomization and treatment initiation with Compound 1.
On Day 55, study groups 1, 2, 3 and 4 were terminated (Table 1). Tumor (snap frozen) samples were collected at 4 hours post last dose for pharmacodynamic (PD) analysis. […] Tumor samples from groups 5 and 6 were collected 3 hours post last dose depending on available tumor sizes. All procedures performed on these animals were in accordance with regulations and established guidelines and were reviewed and approved by Pfizer's Institutional Animal Care and Use Committee. • (iii) Data Interpretation: For each experiment, calculations were performed and graphs created in Microsoft Excel and GraphPad Prism version 7.02 respectively. The tumor volume was calculated as 0.5×length×width^2. Tumor growth inhibition (TGI) was determined by the formula: % TGI=[1−(Vtx−Vt0/Vcx−Vc0)]×100, where Vc, Vt are the geometric means of control and treated groups. X=day X on study and 0=initial day of dosing. ELISA Assay: • (i) Histone Extraction: Histone extraction was performed using the EpiQuick Histone Extraction Kit (Epigentek OP0006). Frozen tumor samples were cut and homogenized using cold mortar and pestle on dry-ice. The homogenized mixture was transferred to a 1.5 mL tube in 1× Pre-Lysis Buffer (200 mg/mL) containing phenylmethylsulfonyl fluoride (PMSF). Samples were gently mixed, incubated on ice for 15 minutes, and spun down at 3,000 rpm for 5 minutes at 4° C. The tissue pellet was resuspended in 3 volumes (approximately 200 μL per 100 mg of tissue) of lysis buffer from the Histone Extraction Kit, incubated on ice for 30 minutes, and spun down at 12,000 rpm for 5 minutes at 4° C. Balance-DTT buffer was prepared by adding DTT Solution to balance buffer at a 1:500 ratio. The supernatant (containing acid soluble proteins) was transferred to a new 1.5 mL tube and 0.3 volumes of Balance-dithiothreitol (DTT) buffer from the Histone Extraction Kit were immediately added to each sample. The tumor lysate was briefly sonicated for 4 cycles (30 seconds on and 30 seconds off) at high intensity using the Bioruptor Plus (Diagenode #601020001). Extracts were aliquoted and stored at −20° C. (short term) or −80° C. (long term). Protein concentration was quantified using the Coomassie Plus (Bradford) Assay Kit (Thermo #23236). • (ii) H3K27Me3 and Me2 ELISA Assay: Histone extracts were diluted to a final concentration of 400 ng (or 800 ng) in 100 μL of coating buffer (phosphate buffered saline (PBS) containing 0.05% bovine serum albumin (BSA)).

N.N.[Cl][Pt][Cl] [cisplatin, reference compound]
TGI by Day 55 (Compound 1 100 mg/kg BID PO, cisplatin 4 mg/kg IP Q7Dx3, alone or combined): 51%
tumors regressed or progressed compared to the starting tumor burden (Day 55, Compound 1 100 mg/kg BID, cisplatin 4 mg/kg Q7Dx3): all tumors had progressed
tumor regression sustained after cisplatin discontinuation (post Day 55, Compound 1 maintenance dosing in combination arm, no further treatment in cisplatin arm): progressed
survival benefit, Log-rank test (Mantel-Cox) (survival cut-off at 500 mm^3 tumor burden): did not reach the P<0.05 significance level
median survival (survival cut-off at 500 mm^3 tumor burden, Compound 1 100 mg/kg BID, cisplatin 4 mg/kg Q7Dx3): 37.5 days
